In ChEMBL document CHEMBL4052612, “Isolation and Identification of the Novel Tubulin Polymerization Inhibitor Bifidenone” (J Nat Prod, 2017):
pIC50: −log10 of the molar value. The source made the active and inactive calls. The calls are words filed in the database; no cut-off is given here.

Key:
[1] = tested on: NCI-H460; experiment: Antiproliferative activity against human NCI-H460 cells after 72 hrs by CellTiter96 AQueous nonradioactive cell proliferation assay; format: functional, cell-based; conditions: NCI-H460, 72 h
[2] = tested on: PC-3; experiment: Antiproliferative activity against human PC3 cells after 72 hrs by CellTiter96 AQueous nonradioactive cell proliferation assay; format: functional, cell-based; conditions: PC-3, 72 h
[3] = tested on: SF-295; experiment: Antiproliferative activity against human SF295 cells after 72 hrs by CellTiter96 AQueous nonradioactive cell proliferation assay; format: functional, cell-based; conditions: SF-295, 72 h
[4] = tested on: ACHN; experiment: Antiproliferative activity against human ACHN cells after 72 hrs by CellTiter96 AQueous nonradioactive cell proliferation assay; format: functional, cell-based
[5] = tested on: M14; experiment: Antiproliferative activity against human M14 cells after 72 hrs by CellTiter96 AQueous nonradioactive cell proliferation assay; format: functional, cell-based; conditions: M14, 72 h
[6] = tested on: A-375; experiment: Antiproliferative activity against human A375 cells after 72 hrs by CellTiter96 AQueous nonradioactive cell proliferation assay; format: functional, cell-based; conditions: A-375, 72 h
[7] = tested on: UACC-62; experiment: Antiproliferative activity against human UACC62 cells after 72 hrs by CellTiter96 AQueous nonradioactive cell proliferation assay; format: functional, cell-based; conditions: UACC-62, 72 h
[8] = tested on: SK-MEL-2; experiment: Antiproliferative activity against human SK-MEL-2 cells after 72 hrs by CellTiter96 AQueous nonradioactive cell proliferation assay; format: functional, cell-based; conditions: SK-MEL-2, 72 h
[9] = tested on: RAW264.7; experiment: Antiproliferative activity against mouse RAW264.7 cells after 18 hrs by CellTiter96 AQueous nonradioactive cell proliferation assay; format: cell-based; conditions: RAW264.7, 18 h
[10] = tested on: NCI-H460; experiment: Induction of apoptosis in human NCI-H460 cells upto 100 uM assessed as increase in caspase3/7 activity after 24 hrs by Caspase-Glo 3/7 assay relative to control; format: functional
[11] = tested on: NCI-H460; experiment: Induction of necrosis in human NCI-H460 cells upto 100 uM assessed as increase in LDH levels after 24 hrs by CytoTox 96 nonradioactive cytotoxicity assay; format: functional, cell-based
[12] = species on record: Sus scrofa; experiment: Inhibition of pig brain tubulin polymerization measured every 1 min for 60 mins
[13] = tested on: HCC 2998; experiment: Antiproliferative activity against human HCC2998 cells after 48 hrs by SRB assay; format: functional, cell-based; conditions: HCC 2998, 48 h
[14] = tested on: SR; experiment: Antiproliferative activity against human SR cells after 48 hrs by SRB assay; format: functional, cell-based
[15] = tested on: Malme-3M; experiment: Antiproliferative activity against human MALME-3M cells after 48 hrs by SRB assay; format: functional, cell-based
[16] = tested on: MDA-MB-435; experiment: Antiproliferative activity against human MDA-MB-435 cells after SRB assay; format: functional, cell-based
[17] = tested on: NCI/ADR-RES; experiment: Antiproliferative activity against human NCI-ADR-RES cells after 48 hrs by SRB assay; format: functional, cell-based
[18] = species on record: Sus scrofa; experiment: Displacement of colchicine from colchicine-binding site of pig brain tubulin up to 100 uM by LC-MS analysis
[19] = species on record: Sus scrofa; experiment: Displacement of vincristine from vinca alkaloid binding site of pig brain tubulin up to 100 uM by LC-MS analysis
[20] = tested on: NCI-H460; experiment: Cell cycle arrest in human NCI-H460 cells assessed as accumulation at G2/M phase at 1.5 uM measured after 6 to 24 hrs in the presence of RNase A by propidium iodide staining-based flow cytometry analysis; format: functional
[21] = Antiproliferative activity against human NCI60 cells after 48 hrs by SRB assay; format: functional, cell-based; conditions: NCI60, 48 h

pIC50 [1] | pIC50 [2] | pIC50 [4] | pIC50 [6] | pIC50 [8] | Structure (SMILES) | pIC50 [3] | pIC50 [5] | pIC50 [7] | pIC50 [9] | pIC50 [17] | also measured
6.59 | 6.31 | 6.44 | 7.12 | 7.02 | C=CC[C@H]1C[C@]2([C@@H](C)Cc3ccc(OC)c(OC)c3)OCOC2=CC1=O | 6.60 | 7.19 | 7.36 | < 5.30 | 6.77 | fold change (FC) [10]: 2.5; Activity [11]: Active; inhibition [12]: Dose-dependent effect; pIC50 [13]: 5.85; pIC50 [14]: > 7.00; pIC50 [15]: > 7.00; pIC50 [16]: > 7.00; inhibition [18]: Active; inhibition [19]: inactive; Activity [20]: Active; pIC50 [21]: 6.57
8.00 | 8.40 | 7.18 | 8.00 | 8.05 | CC(=O)O[C@H]1C(=O)[C@@]2(C)[C@H]([C@H](OC(=O)c3ccccc3)[C@]3(O)C[C@H](OC(=O)[C@H](O)[C@@H](NC(=O)c4ccccc4)c4ccccc4)C(C)=C1C3(C)C)[C@]1(OC(C)=O)CO[C@@H]1C[C@@H]2O [PACLITAXEL] | 7.25 | 8.15 | 8.22 | < 5.30 | < 5.00 | –
